This note sets out measurements from patent US6906068B1, “Substituted polycyclic aryl and heteroaryl 1,2,4 - triazinones useful as anticoagulants” (Pharmacia Corporation, priority 1999, dated 2005).

A value given as a limit tells only on which side of the number the result lay.

Common to all, as to assay type: biochemical
One experiment addresses T1, human factor Xa (Homo sapiens, UniProt P00742).
T1 construct: purchased Enzyme Research Laboratories, South Bend Ind
Put plainly: Xa Assay. The settings on record: @ 30 uM. As to the method:
0.3 nM human factor Xa and 0.15 mM N-α-Benzyloxycarbonyl-D-arginyl-L-glycyl-L-arginine-p-nitroaniline-dihydrochloride (S-2765) are added to a 96-well assay plate containing either inhibitor or buffer (50 mM Tris-HCl, pH 8.0, 100 mM NaCl, 0.1% BSA). The reaction, in a final volume of 100 ul is measured immediately at 405 nm to determine background absorbance. The plate is incubated at room temperature for 60 min, at which time the rate of hydrolysis of the substrate is measured by monitoring the ieaction at 405 nm for the release of p-nitroaniline. Percent inhibition of Xa activity is calculated from OD405 nm value from the experimental and control sample.
(§1) Recombinant soluble TF, consisting of amino acids 1-219 of the mature protein sequence was expressed in E. coli and purified using a Mono Q Sepharose FPLC. Recombinant human VIIa was purchased from American Diagnostica, Greenwich Conn. and chromogenic substrate N-Methylsulfonyl-D-phe-gly-arg-p-nitroaniline was prepared by American Peptide Company, Inc., Sunnyvale, Calif. Factor Xa was obtained from Enzyme Research Laboratories, South Bend Ind., thrombin from Calbiochem, La Jolla, Calif., and trypsin and L-BAPNA from Sigma, St. Louis Mo. The chromogenic substrates S-2765 and S-2238 were purchased from Chromog nix, Sweden.

In experiment [1] the target is T2, TF-VIIa (recombinant soluble tissue factor and recombinant human factor VIIa) (Homo sapiens, UniProt P08709).
T2 construct: conversion of coagulation factor VII to VIIa by Xa; purchased American Diagnostica, Greenwich Conn; host or cells: factor VIIa purchased; soluble TF made in house in E. coli
T2 sequence (P08709 213-466 limits assumed): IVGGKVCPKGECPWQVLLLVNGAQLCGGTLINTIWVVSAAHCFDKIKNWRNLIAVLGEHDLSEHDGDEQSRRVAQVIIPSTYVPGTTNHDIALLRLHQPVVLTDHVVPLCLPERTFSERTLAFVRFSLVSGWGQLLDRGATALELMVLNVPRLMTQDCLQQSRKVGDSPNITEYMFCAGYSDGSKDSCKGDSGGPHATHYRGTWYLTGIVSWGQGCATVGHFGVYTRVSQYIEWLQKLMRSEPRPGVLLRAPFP
T2 sequence (P08709 61-212 partner limits assumed): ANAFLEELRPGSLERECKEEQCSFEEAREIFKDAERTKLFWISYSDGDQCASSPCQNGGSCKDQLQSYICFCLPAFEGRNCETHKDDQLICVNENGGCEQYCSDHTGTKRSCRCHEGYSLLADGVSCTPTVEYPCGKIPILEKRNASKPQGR
T2 sequence (P13726 33-251 partner limits assumed): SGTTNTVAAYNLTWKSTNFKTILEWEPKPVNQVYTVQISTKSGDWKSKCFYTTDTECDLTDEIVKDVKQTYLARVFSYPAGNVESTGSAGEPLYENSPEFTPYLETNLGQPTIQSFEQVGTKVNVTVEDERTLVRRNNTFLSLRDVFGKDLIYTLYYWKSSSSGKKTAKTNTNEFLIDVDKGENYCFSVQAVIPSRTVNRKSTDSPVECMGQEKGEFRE
Put plainly: TF-VIIa Assay. As to the method: In this assy 100 nM recombinant soluble tissue factor and 2 nM recombinant human factor VIIa are added to a 96-well assay plate containing 0.4 mM of the substrate, N-Methylsulfonyl-D-phe-gly-arg-p-nitroaniline and either inhibitor or buffer (5 mM CaCl2, 50 mM Tris-HCl, pH 8.0, 100 mM NaCl, 0.1% BSA). The reaction, in a final volume of 100 ul is measured immediately at 405 nm to determine background absorbance. The plate is incubated at room temperature for 60 min, at which time the rate of hydrolysis of the substrate is measured by monitoring the reaction at 405 nm for the release of p-nitroaniline. Percent inhibition of TF-VIIa activity is calculated from OD405 nm value from the experimental and control sample.
as §1

The target in experiment [2] is T3, trypsin, type IX from porcine pancreas (Sus scrofa, UniProt P00761).
T3 construct: purchased Sigma, St. Louis Mo. type IX; host or cells: porcine pancreas
T3 sequence (P00761 9-231): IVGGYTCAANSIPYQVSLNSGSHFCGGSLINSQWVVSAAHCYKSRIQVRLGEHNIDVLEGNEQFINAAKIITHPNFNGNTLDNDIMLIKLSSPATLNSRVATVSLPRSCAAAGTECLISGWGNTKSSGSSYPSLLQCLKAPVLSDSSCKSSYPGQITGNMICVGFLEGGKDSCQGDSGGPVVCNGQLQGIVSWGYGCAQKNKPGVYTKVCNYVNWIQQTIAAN
Put plainly: Trypsin Assay. Conditions: read-out: Trpysin II IC50. As to the method: 5 ug/ml trypsin, type IX from porcine pancreas and 0.375 mM N-α-Benzoyl-L-arginine-p-nitroanilide (L-BAPNA) are added to a 96-well assay plate containing either inhibitor or buffer (50 mM Tris-HCl, pH 8.0, 100 mM NaCl, 0.1% BSA). The reactions, in a final volume of 100 ul are measured immediately at 405 nm to determine background absorbance. The plate is incubated at room temperature for 60 min, at which time the rate of hydrolysis of the substrate is measured by monitoring the reaction at 405 nm for the release of p-nitroaniline. Percent inhibition of trypsin activity is calculated from OD405 nm value from the experimental and control sample.
as §1

For a further experiment, the target named is human thrombin (Homo sapiens, UniProt P00734). Put plainly: Thrombin Assay. Conditions: @ 30 uM.

T1 sequence (P00742 235-488 limits assumed): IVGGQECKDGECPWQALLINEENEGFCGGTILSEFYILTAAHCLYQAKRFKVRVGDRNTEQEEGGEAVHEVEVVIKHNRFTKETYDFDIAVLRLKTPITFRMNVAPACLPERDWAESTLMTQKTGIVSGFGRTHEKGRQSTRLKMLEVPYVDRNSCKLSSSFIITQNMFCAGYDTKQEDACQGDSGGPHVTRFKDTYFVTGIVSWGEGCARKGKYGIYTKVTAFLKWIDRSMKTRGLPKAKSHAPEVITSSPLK
T1 sequence (P00742 41-179 partner limits assumed): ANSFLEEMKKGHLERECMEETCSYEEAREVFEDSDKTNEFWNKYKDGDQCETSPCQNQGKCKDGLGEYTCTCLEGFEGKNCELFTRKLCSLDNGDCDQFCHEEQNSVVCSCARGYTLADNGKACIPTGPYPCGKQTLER
Description for human thrombin: 0.28 nM human thrombin and 0.06 mM H-D-Phenylalanyl-L-pipecolyl-L-arginine-p-nitroaniline dibydrochloride are added to a 96-well assay plate containing either inhibitor or buffer (50 mM Tris-HCl, pH 8.0, 100 mM NaCl, 0.1% BSA). The reaction, in a final volume of 100 ul is measured immediately at 405 nm to determine background absorbance. The plate is incubated at room temperature for 60 min, at which time the rate of hydrolysis of the substrate is measured by monitoring the reaction at 405 nm for the release of p-nitroaniline. Percent inhibition of thrombin activity is calculated from OD405 nm value from the experimental and control sample.

In the case of `CC(C)Nc1cnc(-c2cccnc2)n(CC(=O)NCc2ccc(C(=N)N)cc2)c1=O` [Example 7], at human factor Xa, the “Factor Xa percent inhibition” value is reported as 33% @ 30 uM.
As for `N=C(N)c1cccc(CNC(=O)Cn2c(-c3ccccc3)ncc(NS(=O)(=O)Cc3ccccc3)c2=O)c1` [Example 2], the half-maximal inhibitory concentration (IC50) in experiment [1] and in experiment [2] was above 30 µM in each case.
On to `N=C(N)c1ccc(CNC(=O)Cn2c(-c3cccc(N)c3)ncc(NC3CCC3)c2=O)cc1` [Example 8], for which the “Factor Xa percent inhibition” value on human factor Xa is 15% @ 30 uM. For the same molecule, the “Thrombin II percent inhibition” value at human thrombin is 42% @ 30 uM.
For `CC(C)Nc1cnc(-c2cccc(N)c2)n(CC(=O)NCc2ccc(C(=N)N)cc2)c1=O` [Example 6] the same measures were 33% @ 30 uM and 43% @ 30 um.

As a reminder, the IC50 is the concentration that gives 50% inhibition.
